The subject of one assay is Aspergillus flavus. Put plainly: Antifungal activity, Aspergillus flavus (inhibition zone and MIC). The assay is classed as cell-based. As to conditions: Aspergillus flavus fungi.
Assay [1] deals with Colon carcinoma cells (HCT-116 cell line). Kind of assay: Anti-cancer activity, colon carcinoma cells. In kind it is cell-based.
The test system of another assay is Microccus luteus. Kind of assay: Antimicrobial activity, Microccus luteus (inhibition zone and MIC). In kind it is cell-based.
The next assay has as its system E. coli. Kind of assay: Antimicrobial activity, E. coli (inhibition zone and MIC). In kind it is cell-based. As to conditions: E. coli bacteria.
Assay [2] deals with breast cancer cell line. Put plainly: Anti-cancer activity, breast cancer cell line. In kind it is cell-based, human.
In assay [3] the test system is breast cancer cell line. Kind of assay: Antioxidant activity. As to conditions: against a breast cancer cell line. The assay is classed as cell-based.
The mark [4] stands for this setting: Homo sapiens, read-out: IC50 (anticancer activity).

≈ marks a conversion by molar mass, not a printed value. Read-outs that look alike come from different tables or passages of the source.

Consider “5,10,15,20-Tetrakis (4-hydroxyphenyl)-Porphyrins Pd(II) complex [prepared complex]”, for which the figures for the minimum inhibitory concentration (MIC) in the assay on Aspergillus flavus, with Microccus luteus and in the assay on E. coli were 1.75 µg/mL, 0.75 µg/mL and 1.5 µg/mL, respectively. The inhibition zone in the assay on Aspergillus flavus was 23.25 mm; in the assay with Aspergillus flavus (listed as present complex), “about 23.25 mm”; in the assay with Microccus luteus it was 41.5 mm; in the assay with Microccus luteus (listed as present complex), “about 41.5 mm”; in the assay on E. coli (listed as prepared nano complex), 33 mm; with E. coli (listed as present complex), “about 33 mm”. Moreover, the “IC50 (anticancer activity)” value in assay [1] was found to be 4.9 µg/mL; in the assay with breast cancer cell line [2], 4.5 µg/mL. In addition, in the assay with breast cancer cell line [3], the “IC50 (antioxidant activity)” value came out at 10.5 µg/mL.

Turning to `O=C1O[C@H]([C@@H](O)CO)C(O)=C1O` [1-ascorbic acid, reference compound], in the assay on breast cancer cell line [3], the “IC50 (antioxidant activity)” value turned out to be 55.2 µg/mL (≈ 313 µM).

As to `OC(Cn1cncn1)(Cn1cncn1)c1ccc(F)cc1F` [Fluconazol, reference compound], in the assay on Aspergillus flavus, the inhibition zone came out at 22.00 mm. In addition, the MIC in the assay on Aspergillus flavus (read-out: MIC) came to 2.5 µg/mL (≈ 8.16 µM).

Turning to `CC1COc2c(N3CCN(C)CC3)c(F)cc3c(=O)c(C(=O)O)cn1c23` (stereo not drawn) [Ofloxacin, reference compound], the inhibition zone in the assay on Microccus luteus was 39.75 mm; in the assay with E. coli, 30 mm. In addition, the minimal inhibitory concentration (MIC) is 1.25 µg/mL (≈ 3.46 µM) in the assay with Microccus luteus (read-out: MIC) and 2.25 µg/mL (≈ 6.23 µM) with E. coli (Escherichia coli, read-out: MIC).

On to `CC[C@]1(O)C[C@@H]2CN(CCc3c([nH]c4ccccc34)[C@@](C(=O)OC)(c3cc4c(cc3OC)N(C)[C@H]3[C@@](O)(C(=O)OC)[C@H](OC(C)=O)[C@]5(CC)C=CCN6CC[C@]43[C@@H]65)C2)C1` [vinblastine, reference compound], for which the IC50 in assay [1] (setting [4]) was 5.41 µg/mL (≈ 6.67 µM); in the assay with breast cancer cell line [2] (setting [4]), 5.2 µg/mL (≈ 6.41 µM).

As usually defined, the MIC is the lowest concentration that inhibits growth of the organism. For orientation: IC50 means the concentration that gives 50% inhibition.

(Values after patent US11873306B1, “Nano-sized 5,10,15,20-tetrakis (4-hydroxyphenyl)-porphyrins pd(II) complex for super medicinal applications” (KING FAISAL UNIVERSITY, priority 2023, dated 2024).)
